According to patent publication US20220340983A1, “SYSTEMS AND ASSAYS FOR IDENTIFYING PU.1 INHIBITORS” (Massachustts Institute of Technology, priority 2019, published 2022):
Starred links: 1 amine or outer side, 2 acyl side, 3 side chain; linkers in the order of their positions; H or OH if unused. Positions of bridges follow the written chain, without caps; N, C: chain ends. Non-standard residues stand in square brackets, D forms with d. Residues, ends and D or L forms follow the SMILES beside them. Chains are numbered I, II in the order given. Actinocin(9to1) = Cc1c2oc3c(C)ccc(C(=O)[*:1])c3nc-2c(C(=O)[*:2])c(N)c1=O; NMeV = CN[C@H](C(=O)O)C(C)C; Sar = CNCC(=O)O

Legend:
[1] = system: PU.1 dependent gene expression; assay: RT-qPCR of mRNA levels in BV2 PU.1-Luciferase cells (validation round 3); type: cell-based, mouse; conditions: 2-day treatment
Description: The Asinex1 and ChemDiv6 libraries contain molecules with unknown biological properties, but with low toxicity, high stability, and a broad structural diversity used to generate structure-activity-relationships (SAR) of the PU.1 inhibitors. […] In order to obtain the SAR, three rounds of validation were performed. In round 1, false-positive, non-specific luciferase quencher molecules were excluded using the commercially available HEK293 CMV-Luciferase line that constitutively expresses luciferase under the CMV promoter. In round 2, weak (non-significant) hits were eliminated according to degree of PU.1 inhibition in the absence of cell death. In round 3, drugs were selected that reduce PU.1-dependent gene expression with RT-qPCR.

PU.1 [2] = biological target: T1, PU.1 (Mus musculus, UniProt P17433); assay: Luciferase assay (luminescence) in BV2 PU.1-Luciferase reporter cells; type: cell-based; conditions: for IC50: luminescence reduction in BV2 PU.1-Luciferase cells, concentration-response, Hill's equation
T1 construct: endogenous in cells; host or cells: BV2 PU.1-Luciferase (mouse microglial BV2 with a 5xLBB-luciferase reporter integrated at ROSA26)
Description: PU.1 belongs to a group of transcription factors that all bind to the middle 5′-GGAA-3′ sequence. The flanking A/T rich sequence is crucial for conferring PU.1 selective binding. The flanking sequence requires unique structural properties of PU.1 and can therefore be targeted by drugs acting as allosteric inhibitors that prevent PU.1 from binding to the LBB. In order to achieve robust PU.1 binding, five tandem copies of the LBBs (5×LBB) were inserted into the luciferase promoter of the pGL4.23 plasmid. The region containing the five LBBs (5×LBB) was then subcloned into the pROSA26-1 plasmid (together with a PGKneo bpA plasmid for Neomycin/G418 resistance) that allows stable integration in chromosome 6 of the immortalized mouse microglial BV2 cell line (FIG. 2B). The stable cell line was created by selection with G418.
The BV2 PU.1-Luciferase cells (referred to as “cells” from here onward) were plated into a 384-well plate, using an automatic dispenser, 2000 cells per well in 30 μL of media composed of RPMI (Sigma-Aldrich), 10% FBS, 1% PenStrep (50 mg/mL) and 1% G418 (50 mg/mL) was plated. A robotic arm was used to transfer compounds in a 384-well format using a pin array into the plate containing the cells (here, 33 nL was transferred from a drug library containing 10 mM concentration of drugs for a final concentration of 10 μM per well). For reproducibility, each pin array with 384 compounds was added to 4 plates of cells. […] Subsequently, automatic of 30 μL of BrightGlo (Promega) was dispensed into 2 of the 4 plates, in order to lyse the cells and drive the luminescence reaction whereafter the luminescence intensity was measured by a plate reader (Perkin Elmer EnVision). The two other plates were fixed by automatically dispensing 30 μL of 10% formaldehyde with 2μL Hoechst per 1 mL formaldehyde which were left at room temperature for one hour, followed by plate reading (Acumen (TTPLabTech)). A compound transfer and treatment would be repeated if reproducibility between the luminescence plates and/or the fixed Hoechst plates was lacking. The drugs were selected and ranked according to the criteria described in FIG. 13. Luminescence values used were corrected for crosstalk. Hoechst values were total fluorescence area per well. Determination of a positive hit considered both the reduction of luminescence as well as a possible confounding reduction in cell viability. The formula used was y=(value−meanvalue)/stddev. […] Compounds were excluded if cell viability was reduced >2 standard deviations from the mean, using the same formula. The positive hits were then validated in multiple steps in order to identify true PU.1 inhibitors.
The degree of luminescence reduction of the hits was plotted with significant effective area under the curve in order to obtain an IC50.

[3] = system: HEK293 CMV-Luciferase cells; assay: Luminescence in HEK293 CMV-Luciferase control line (luciferase quencher counter-screen); type: cell-based
Description: The IACS Selleck Known Bioactive library (2,100 compounds) was screened and there 35 hits were identified (˜1.7% hit rate), the Asinex1 library (12,000 compounds) was screened and 60 hits were identified (˜0.5% hit rate), and the ChemDiv6 library (44,000 compounds) was screened and 169 hits were identified (˜0.4% hit rate). The Selleck library contains drugs approved by the United States Food and Drug Administration (FDA) with known intracellular mechanisms of action which will give instant insight into pathways that block PU.1 activity. The Asinex1 and ChemDiv6 libraries contain molecules with unknown biological properties, but with low toxicity, high stability, and a broad structural diversity used to generate structure-activity-relationships (SAR) of the PU.1 inhibitors. SAR is used to design new drug libraries containing only molecules with similar structures as previous hits. In order to obtain the SAR, three rounds of validation were performed. In round 1, false-positive, non-specific luciferase quencher molecules were excluded using the commercially available HEK293 CMV-Luciferase line that constitutively expresses luciferase under the CMV promoter. In round 2, weak (non-significant) hits were eliminated according to degree of PU.1 inhibition in the absence of cell death. In round 3, drugs were selected that reduce PU.1-dependent gene expression with RT-qPCR.

[4] = system: HEK293 CMV-Luciferase cells; assay: Cell viability (Hoechst staining) in HEK293 CMV-Luciferase cells; conditions: for cell viability (Hoechst) (FIG. 2D): HEK293 CMV-Luciferase cell line, 1 μM; for cell viability (Hoechst-staining): HEK293 CMV-Luciferase line, 2-day incubation, actinomycin D, puromycin, 119113 10 μM, DB2313 2.5 μM
Description: Assays were conducted for percent luminescence and cell viability (Hoechst-staining) after a 2-day incubation under the following conditions. As negative controls pure DMSO and “mock” conditions (where nothing is added to the cells) were used.

PU.1 [5] = biological target: T1, PU.1; assay: Luciferase assay (luminescence) in BV2 PU.1-Luciferase reporter cells; type: cell-based; conditions: BV2 PU.1-Luciferase cells, 1 μM
[6] = system: BV2 PU.1-Luciferase cells; assay: Cell viability (Hoechst staining) in BV2 PU.1-Luciferase cells; type: cell-based, mouse
Description: The BV2 PU.1-Luciferase cells (referred to as “cells” from here onward) were plated into a 384-well plate, using an automatic dispenser, 2000 cells per well in 30 μL of media composed of RPMI (Sigma-Aldrich), 10% FBS, 1% PenStrep (50 mg/mL) and 1% G418 (50 mg/mL) was plated. […] For reproducibility, each pin array with 384 compounds was added to 4 plates of cells. The cells and compounds were incubated at 37° C. for a period of time sufficient for the compounds to have an effect on the cells (about 2 days). Subsequently, automatic of 30 μL of BrightGlo (Promega) was dispensed into 2 of the 4 plates, in order to lyse the cells and drive the luminescence reaction whereafter the luminescence intensity was measured by a plate reader (Perkin Elmer EnVision). The two other plates were fixed by automatically dispensing 30 μL of 10% formaldehyde with 2μL Hoechst per 1 mL formaldehyde which were left at room temperature for one hour, followed by plate reading (Acumen (TTPLabTech)). A compound transfer and treatment would be repeated if reproducibility between the luminescence plates and/or the fixed Hoechst plates was lacking. […] Luminescence values used were corrected for crosstalk. Hoechst values were total fluorescence area per well. Determination of a positive hit considered both the reduction of luminescence as well as a possible confounding reduction in cell viability. […]

SMILES	IC50 (PU.1 [2]) [nM]	mRNA levels Apoe [1]	mRNA levels IL1β [1]	mRNA levels Lucif. [1]	mRNA levels Spi1 [1]	mRNA levels Trem2 [1]	mRNA levels Tyrobp [1]	percent luminescence (PU.1 [2]; BV2 PU.1-Luciferase line, 2-day incubation, 119113 10 μM, DB2313 2.5 μM)	luminescence (FIG. 2D) ([3]; HEK293 CMV-Luciferase cell line, 1 μM)	percent luminescence ([3]; HEK293 CMV-Luciferase line, 2-day incubation, 119113 10 μM, DB2313 2.5 μM)	cell viability (Hoechst) (FIG. 2D) [4]	cell viability (Hoechst-staining) [4]	luminescence (FIG. 2D) (PU.1 [5])	cell viability (Hoechst) (FIG. 2D) ([6]; BV2 PU.1-Luciferase cells, 1 μM)	cell viability (Hoechst-staining) ([6]; BV2 PU.1-Luciferase line, 2-day incubation, actinomycin D, puromycin, 119113 10 μM, DB2313 2.5 μM)
CC(C)N=C(N)c1ccc2nc(-c3ccc(OCc4cccc(COc5ccc(-c6nc7ccc(C(N)=NC(C)C)cc7[nH]6)cc5)c4F)cc3)[nH]c2c1 [DB2313, reference compound]		0.600 multiples of 1×	0.460 multiples of 1×	0.340 multiples of 1×	0.820 multiples of 1×	1.030 multiples of 1×	1.030 multiples of 1×	reduction in luminescence	only in the BV2 PU.1-Luciferase line	no effect	only in the BV2 PU.1-Luciferase line	no effect	reduced luminescence		
Cc1c2oc3c(C)ccc(C(=O)N[C@@H]4C(=O)N[C@H](C(C)C)C(=O)N5CCC[C@H]5C(=O)N(C)CC(=O)N(C)[C@@H](C(C)C)C(=O)O[C@@H]4C)c3nc-2c(C(=O)N[C@@H]2C(=O)N[C@H](C(C)C)C(=O)N3CCC[C@H]3C(=O)N(C)CC(=O)N(C)[C@@H](C(C)C)C(=O)O[C@@H]2C)c(N)c1=O [Actinomycin D] (I: T[dV]P[Sar][NMeV] / II: T[dV]P[Sar][NMeV]; ester I:1-I:C, II:1-II:C; linker I:N-II:N via Actinocin(9to1))											toxic	reduced cell viability		toxic	reduced cell viability
COc1ccc(C[C@H](N)C(=O)N[C@H]2[C@@H](O)[C@H](n3cnc4c(N(C)C)ncnc43)O[C@@H]2CO)cc1 [puromycin]											ineffective	resistant			
CCCCN(c1ccccc1)c1ncnc2c1cnn2-c1ccc(Cl)cc1 [Compound 2G8]	967	1.119 multiples of 1×	1.362 multiples of 1×	0.497 multiples of 1×	1.179 multiples of 1×	1.237 multiples of 1×	1.469 multiples of 1×								

The next lines start with results.

IC50 (PU.1 [2]) [nM]	SMILES	mRNA levels Apoe [1]	mRNA levels IL1β [1]	mRNA levels Lucif. [1]	mRNA levels Spi1 [1]	mRNA levels Trem2 [1]	mRNA levels Tyrobp [1]	percent luminescence (PU.1 [2]; BV2 PU.1-Luciferase line, 2-day incubation, 119113 10 μM, DB2313 2.5 μM)	luminescence (FIG. 2D) ([3]; HEK293 CMV-Luciferase cell line, 1 μM)	percent luminescence ([3]; HEK293 CMV-Luciferase line, 2-day incubation, 119113 10 μM, DB2313 2.5 μM)	cell viability (Hoechst) (FIG. 2D) [4]	cell viability (Hoechst-staining) [4]	luminescence (FIG. 2D) (PU.1 [5])	cell viability (Hoechst) (FIG. 2D) ([6]; BV2 PU.1-Luciferase cells, 1 μM)	cell viability (Hoechst-staining) ([6]; BV2 PU.1-Luciferase line, 2-day incubation, actinomycin D, puromycin, 119113 10 μM, DB2313 2.5 μM)
258	COc1cccc2cc(C(=O)Nc3ccc(N4CCNCC4)cc3)c(=O)oc12 [Compound D10]	1.251 multiples of 1×	1.347 multiples of 1×	0.622 multiples of 1×	1.072 multiples of 1×	1.342 multiples of 1×	1.593 multiples of 1×								
3540	COc1cc(NS(=O)(=O)c2ccc3c(c2)CCN3S(C)(=O)=O)cc(OC)c1 [Compound 2F5]	0.790 multiples of 1×	0.767 multiples of 1×	0.590 multiples of 1×	0.783 multiples of 1×	0.901 multiples of 1×	0.985 multiples of 1×								
1620	CCCC(=O)Nc1nnc(SCc2cc(=O)c3ccc(C)cc3[nH]2)s1 [Compound 2E6]	1.170 multiples of 1×	0.810 multiples of 1×	0.379 multiples of 1×	1.046 multiples of 1×	1.262 multiples of 1×	1.347 multiples of 1×								
